Measurements: patent publication US20250339817A1, “A PROCESS FOR THE NITRIC OXIDE ABATEMENT THROUGH BIOLOGICAL TREATMENTS” (FUNDACIÓ EURECAT, priority 2022, published 2025)

Tests used:
Assay type in all cases: physicochemical
[1] = Mass transfer gas-to-liquid batch tests in a three-phase system (CO2/NO/Aqueous/NAP), CO2; details: gas mixture, phosphate buffer
Description: (§1) Mass transfer gas-to-liquid batch tests with a mixture of gases with CO2 and NO were performed to determine the mass transfer rate and selectivity of these gases in the presence of NAP and aqueous phase. The results were compared with respect to blank (water or phosphate buffer at pH 8 without NAP). The initial samples were filled with CO2 to reach a peak transmittance area between 8010 and 8940 cm^−1 and NO to reach a peak of transmittance area between 11 and 14 cm^−1, then 10 mL of each NAP (HTX, HNO and HEX) was injected. Tests were performed with a phosphate buffer at pH 8 at a 10% v/v ratio of NAP/aqueous phase. All experiments were performed in 500 mL amber glass bottles previously prepared in a glove box to maintain an inert atmosphere and carried out per at least triplicate at a temperature of 25° C. and 100 rpm orbital shaking in an incubator. CO2 and NO in the gas phase were measured at the beginning and at the end of the test. Also, the liquid phase was monitored for pH, nitrite (NO2^−) and nitrate (NO3^−) at the end of each test.
(§2) NO and CO2 peak area in the gas phase were measured by Fourier Transform Infrared Spectroscopy (FTIR). In these experiments the peak area was analyzed and not the concentration. Therefore, the performance of the tests will be given in percent (%) area reduction, which is defined in Eq 1. Nitrogen compounds were analyzed in liquid samples after being centrifuged at 15,000 rpm and filtration (0.22 μm) to separate the NAP found in the sample. NO2^− and NO3^− were measured using Hach Lange kits (LCK342 and LCK 339, respectively, Hach Lange, Germany).
(§3) The initial area (Areainitial) is a quantitative measure of the transmittance at certain given wavelengths (NO=1730-1930 cm^−1; CO2=2230-2400 cm^−1) and correlates the presence of the compound in the sample at time=0 h. The final area (Areafinal) is a quantitative measure of the transmittance at the given wavelengths (NO=between 1730-1930 cm^−1; CO2=2230-2400 cm-1) and correlates with the presence of the compound in the sample at time=1 h.

[2] = Mass transfer gas-to-liquid batch tests in a two-phase system with a mixture of gases (CO2/NO/NAP), CO2; details: 1 h
Description: (§4) Mass transfer gas-to-liquid batch tests with a mixture of gases with CO2 and NO were performed to determine the mass transfer rate and selectivity of these gases in the presence of NAP. The initial samples were filled with CO2 to reach a peak transmittance area between 6388 and 8018 cm^−1 and NO to reach a peak of transmittance area between 73 and 84 cm^−1, then 10 mL of each NAP (HTX, HNO and HEX) was injected. CO2 and NO in the gas phase were measured at the beginning and at the end of the test. All experiments were carried out per at least triplicate at a temperature of 25° C. and 100 rpm orbital shaking in an incubator. These tests had also a blank in which the NAP phase was replaced by phosphate buffer (pH=8).
as §2, §3

[3] = Mass transfer gas-to-liquid tests in a two-phase system (CO2/NAP); details: pure CO2 (without gas mixture), 1 h
Description: Mass transfer gas-to-liquid batch tests were performed to determine the mass transfer rate of CO2 in the presence of NAP. The initial samples were filled with CO2 to reach a peak transmittance area between 6200 and 7100 cm-1, then 10 mL of each NAP (HTX, HNO and HEX) was injected. […] CO2 in the gas phase were measured at the beginning and at the end of the test. All experiments were performed in 500 mL amber glass bottles previously prepared in a glove box to maintain an inert atmosphere and carried out per at least triplicate at a temperature of 25° C. and 100 rpm orbital shaking in an incubator.
as §2, §3

[4] = Mass transfer gas-to-liquid batch tests in a two-phase system with a mixture of gases (CO2/NO/NAP), NO; details: 1 h
Description: as §4, §2, §3

[5] = Mass transfer gas-to-liquid batch tests in a three-phase system (CO2/NO/Aqueous/NAP), NO; set-up: concentration or dose not given beside the values; details: phosphate buffer
Description: as §1, §2, §3

[6] = Nitric oxide (NO) absorption with pure NAPs (batch tests); details: pure NAP, first screening test, 1 hour, 25° C., initial NO 4500-5100 ppmv
Description: Batch tests with pure NAPs were performed in 120 mL glass amber vials with an initial concentration of NO between 4500 and 5100 ppmv and different amounts of NAPs (DES, SO, HTX, HNO and HEX). For this experiment each NAP was added to a vial containing NO. Each NAP was tested alone. The results were compared with respect to a blank containing deionized water instead of NAP. All experiments were carried out at a temperature of 25° C. and agitation of 100 rpm in an incubator, five replicates were made per point. Gas phase analysis (NO and NO2) was performed at the beginning of the experiment and at the end (1 hour).
NO and NO2 concentrations in the gas phase were measured by Fourier Transform Infrared Spectroscopy (FTIR) from an aliquot of 1 mL (PerkinElmer Inc., Spain). The NO removal efficiency in the tests was calculated from the difference in NO concentration from the beginning and end of each test. Nitrogen compounds and chemical oxygen demand (COD) were analyzed in liquid samples after centrifuged at 15,000 rpm and filtration (0.22 μm) to separate the NAP found in the sample. Nitrite and nitrate were measured using Hach Lange kits (LCK342 and LCK 339, respectively, Hach Lange, Germany). COD was measured using Hach Lange kits (LCK114 and LCK 214, respectively, Hach Lange, Germany).

Structure (SMILES): CCCCCCCCCCCCCCCC [HEX, n-hexadecane]
- CO2 peak area difference [1]: 8±2%
- CO2 peak area reduction [2]: 15±2%
- CO2 peak area reduction [3]: 11±3%
- NO percent of area reduction [4]: 31±6%
- NO percent of area reduction ([5]; with CO2): 28±3%
- NO percent of area reduction ([5]; without CO2): 26±5%
- RE NO (NO removal efficiency) [6]: 29.2%

Structure (SMILES): CC(CC(C)(C)C)CC(C)(C)CC(C)(C)C (centres unmarked) [HNO, 2,2,4,4,6,8,8-heptamethylnonane]
- CO2 peak area difference [1]: 3±7%
- CO2 peak area reduction [2]: 13±0.3%
- CO2 peak area reduction [3]: 18±3%
- NO percent of area reduction [4]: 21±4%
- NO percent of area reduction ([5]; with CO2): 54±4%
- NO percent of area reduction ([5]; without CO2): 32±4%

Structure (SMILES): C[SiH](O[Si](C)(C)C)O[Si](C)(C)C [HTX, 1,1,1,3,5,5,5-heptamethyl-trisiloxane]
- CO2 peak area difference [1]: 7±2%
- CO2 peak area reduction [2]: 97±0.9%
- CO2 peak area reduction [3]: 99±0.2%
- NO percent of area reduction [4]: 62±5%
- NO percent of area reduction ([5]; with CO2): 56±7%
- NO percent of area reduction ([5]; without CO2): 70±3%
- RE NO (NO removal efficiency) [6]: 49.2%
